Values of other authors, collected in patent US11160882B2, “Indirect chromoendoscopy with an oral indigo carmine base preparation” (priority 2014, dated 2021).

Legend:
[1] = humans (Oravisto K., 1957)
colon [2] = settings: 100 mg oral capsule before the colonic prep
colon [3] = settings: 100 mg oral powder before the colonic prep
[4] = rat, oral (Lethco et al., 1966)

clearance of absorbed food colorant from circulation [1]: cleared very rapidly | dye taken orally that was absorbed [4]: 3% | daily intake certified by the FDA (use as a food colorant): up to 2 mg/kg
SMILES: O=C1/C(=C2\Nc3ccc(S(=O)(=O)[O-])cc3C2=O)Nc2ccc(S(=O)(=O)[O-])cc21.[Na+].[Na+] [indigo carmine]
cases in which staining of the entire colon was ineffective (colon [2]): over 90% | side effects (colon [3]): No side effects were observed | cases with good effect (staining), left colon (colon [3]; left colon): 50% | cases with good effect (staining), right colon (colon [3]; right colon): 80% | toxicity from oral administration (oral administration): no reports of toxicity
